Experimental data published in patent US12281301B2, “Sequencing-based proteomics” (THE BROAD INSTITUTE, INC., priority 2018, dated 2025).
“Also recorded” adds a separate entry of the source. Peptide text beside a SMILES is read from it. * marks the point of attachment. Cbz = O=C(OCc1ccccc1)*

Key:
Assay type in all cases: cell-based, human
HEK293T cells [1] = experiment: TMT labeling whole proteome mass spectrometry, drug-treated versus untreated control cells
Description: Mass spectrometry. Cells were grown and stimulated in 10 cm dishes, washed three times in cold PBS, and scraped into 1 ml 8 M urea in water per dish. Protein content of the lysates was quantified using Pierce 660 reagent and a NanoDrop spectrometer. Samples were reduced, iodoacetamide alkylated, digested with Trypsin, labeled with 10-plex TMT (VWR cat no PI90110), and combined. After SPE clean-up and volume reduction by SpeedVac, the combined sample was run on a C18 reverse phase LC using a pH 10 A buffer, and eight fractions were collected. The volume was reduced to 20 μl by SpeedVac. Each fraction was run on an EASY nLC HPLC attached to a Thermo QE-HFX mass spectrometer in nanospray configuration using a 90 minutes acquisition time. Proteins were quantified using the MaxQuant software package.
Statistical analysis. Mass spectrometry reporter intensity data were imported into Perseus software, log-2-transformed, and filtered for missing values as well as reverse peptides or potential contaminants. Data were median-subtracted and significant outliers were determined by performing two-sided unpaired t-tests, correcting for multiple testing using an FDR=5% and s0=0.1, performing 250 randomizations. PATTERNS mean protein level bin data were processed in the same way except without the filtering and normalization steps. Volcano plots were generated using the Perseus software, and all other plots were created using custom code.

[2] = tested on: library of tagged HEK293T cells; experiment: SBP/PATTERNS protein quantification (FACS binning and tag/barcode sequencing) of drug-treated versus untreated control cells; conditions: for number of proteins significantly affected, by PATTERNS: 6 hours stated for Bortezomib
Description: Library-scale RNP-mediated gene tagging. On day one, 18 million HEK293T NeoR-KO cells were plated per 15-cm dish into 32 dishes. On day two, 4 ml of scaled-up transfection mix (see above) were gently added per dish. On day seven, cells were trypsinized and re-plated in media containing 300 μg/ml G418 (Invivogen). The selection media was changed every 4-8 days. On day 25, the library was pre-enriched for detectable fluorescence by FACS sorting, gating on the top-30% mNeon-positive population. The library was expanded for a week and frozen for future use.
Transposition-based Tag Integration Site Sequencing (TTISS). 800,000 cells were resuspended in 80 μl direct lysis buffer (1 mM CaCl2), 3 mM MgCl2, 1 mM EDTA, 1% Triton X-100, 10 mM Tris pH 7.5, 0.2 mg/ml Proteinase K), lysed at 65° C. for 10 minutes, and kept on ice or frozen at −20° C. 25 μl 5×TAPS buffer (50 mM TAPS-NaOH pH 8.5, 25 mM MgCl2), and 21 μl transposon-loaded Tn5 (16 mg/ml, produced as described in Picelli, S. et al. Tn5 transposase and tagmentation procedures for massively scaled sequencing projects. Genome Res 24, 2033-2040, doi: 10.1101/gr.177881.114 (2014), titrated batch-wise for optimal fragment sizes) were added, mixed well, and incubated at 55° C. for 10 minutes. The reaction was mixed with 625 μl buffer PB (Qiagen) and purified using a plasmid miniprep column (Qiagen). Typical yields were 15 μg per column. The tagmentation size distribution was verified on an agarose gel to range from 200 bp to 1 kb. All DNA from a single column was used as template in a 300 μl KOD extreme hot start PCR (Roche) with primers TTISS-mNeon-fwd1 and Tn5-Loading-R2 (Table 1), 12 cycles, Ta=60° C. 6 μl of PCR reaction was used as template in a secondary 50 μl KOD extreme hot start PCR with a unique combination of barcoded primers TTISS-mNeon-fwd2-D50× and TTISS-rev2-D70x(Table 1), 20 cycles, Ta=65° C. Barcoded PCRs were pooled on ice, purified using a PCR column (Qiagen), and run on an agarose gel. Products of 250 bp-1 kb were excised, purified using a gel purification kit (Qiagen), and re-purified using a PCR column (Qiagen). Samples were quantified using a NanoDrop spectrometer and sequenced using a NextSeq High Output kit (Illumina) with 30% PhiX spike-in and the following read settings: 120 cycles read 1, 25 cycles read 2, 8 cycles index 1, and 8 cycles index 2.
Alternatively, 22 bp forward (fwd) reads and 8 bp reverse (rev) reads were aligned to 1 kb windows of the human genomic sequence (hg38) upstream of gRNA target sites not allowing mismatches, and hits were filtered to be in-frame with the annotated ORF (RefSeq). For gRNA-wise protein quantification, counts per gRNA from six adjacent sorted bins were used to calculate the weighted mean bin and variance. For UMI-based evaluation, a dictionary of UMIs was created per sequencing run by calculating a 28-bit hash of nine UMI bases together with one constant donor base and 22 target bases from successfully aligned fwd reads using the same alignment parameters as for gRNA-wise protein quantification. The hash was used to count UMI occurrences and store UMI sequence/target information in an array with typically below 10 conflicts per run. UMIs were collapsed with an edit distance of 1 in order to account for sequencing errors. The UMI dictionary was used to count bin- and UMI-wise reads using the same hash function. Counts per UMI from six adjacent sorted bins were used to calculate the weighted mean bin and variance. All software was written as interactive web tools in JavaScript and will be available through GitHub.
FACS sorting. Cells were trypsinized, washed in FluoroBrite DMEM Media (Thermo) and sorted using a Sony MA900 (where not denoted otherwise) or a MoFlo Astrios sorter (for […], SKMEL28 screens) using a 488 nm laser. Cells were collected in 1 ml growth medium and kept on ice until pelleting and lysis.
De-convolution of sorted libraries using Silent Barcode Sequencing. […]

HEK293T cells [3] = experiment: RNA-sequencing transcript expression, drug-treated versus untreated control cells
Description: RNA-seq. Whole-cell RNA was purified using an RNeasy Plus Mini Kit (Qiagen). Poly (A) mRNA was enriched using the Poly(A) mRNA Magnetic Isolation Module (NEB). Sequencing libraries were prepared using the NEBNext Ultra II Directional RNA Library Prep kit (NEB), quantified using a NanoDrop (Thermo), and sequenced on the NextSeq sequencer (Illumina). Reads were aligned to the human genome and gene expression was quantified using the online tool BrowserGenome.org (Schmid-Burgk, J. L. & Hornung, V. BrowserGenome.org: web-based RNA-seq data analysis and visualization. Nat Methods 12, 1001, doi: 10.1038/nmeth.3615 (2015)).

HEK293T cells [4] = experiment: Immunoblotting validation of predicted drug-regulated proteins; conditions: time points after drug treatment
Description: Immunoblotting. Cells were lysed in 6-well plates in 400 μl 2×LDS buffer (Thermo) supplemented with 2×Bolt reducing agent (Thermo), heated to 95° C. for 15 minutes, and cooled on ice. 9 μl lysate was loaded per lane of Bolt 4-12% Bis-Tris Plus gels (Thermo) and run at 100 V for 1:15 h. Blotting was performed using the iBlot PVDF kit (Thermo) and program P-3 for 4 minutes. After blocking for 1 h in TBST 5% BSA, primary antibodies were bound over night at 4° C. in TBST 5% BSA. After triple washing, HRP-conjugated secondary antibodies (Cell Signaling Technology) were bound at 1:5000 dilution in TBST 5% BSA for 1 h at room temperature. Blots were imaged using Pierce ECL (Thermo) on a Chemidoc luminescence imager (Biorad). Primary antibodies used were: RBM39 clone 4G8 (Novus Biologicals), DDIT4 clone EPR18716 (Abcam), BRD2 clone D89B4 (Cell Signaling Technology), RRM2 clone 1E1 (Sigma), HRP-coupled beta-Actin clone 13E5 (Cell Signaling Technology), and cell cycle antibody cocktail (ab136810, Abcam).

[5] = tested on: clonal mNeon-tagged reporter cell lines; experiment: FACS of clonal mNeon-tagged reporter cell lines after drug stimulation
Description: (§1) Analytical flow cytometry. For optional genomic DNA staining, 1/20 volume of Hoechst 33342 (10 mg/ml, Thermo) was added to live cells for 15 minutes at 37° C. Cells were washed in PBS, trypsinized, resuspended in media, and analyzed on a CytoFLEX (Beckman Coulter) in 96-well plate mode.

MSH6 = experiment: MSH6-mNeonGreen reporter cell line assayed by FACS; conditions: for MSH6-mNeonGreen expression after application of single compounds: single compounds at 125 nM for 6 h
Description: as §1

PRKDC = experiment: PRKDC-mNeonGreen reporter cells assayed by FACS; conditions: 125 nM, indicated time points
Description: as §1

[6] = drug-treated vs untreated control cells

SMILES: CC(C)C[C@H](NC(=O)[C@H](Cc1ccccc1)NC(=O)c1cnccn1)B(O)O [Bortezomib]
- DDIT4 quantification by quantitative mass spectrometry (HEK293T cells [1]; [6]): failed to quantify
- outlier / upregulated proteins by TMT whole proteome mass spectrometry (HEK293T cells [1]; drug-treated vs untreated control cells, triplicate): ATF3 and JUN; also recorded: two upregulated proteins
- DDIT4 level by PATTERNS ([2]; HEK293T library, 6 hours, change may be non-specific): affected
- number of proteins significantly affected, by PATTERNS ([2]; HEK293T library): 55 proteins
- DDIT4 level change (mean protein expression bin) by SBP ([2]; topmost change, not statistically significant in the SBP data): +1.6 bins
- DDIT4 identification as target by RNA-Seq (HEK293T cells [3]; [6]): could not identify
- PATTERNS hits regulated at the transcript level (RNA-sequencing) (HEK293T cells [3]; of the 55 PATTERNS hits): only GADD45B
- DDIT4 increase validated by western blot (HEK293T cells [4]): confirmed
- PATTERNS hits DDIT4, ID1, ID2 and JUN validated by western blot (HEK293T cells [4]): confirmed
- PATTERNS hits DDIT4, ID1, ID2 and JUN validated by FACS of reporter cell lines [5]: confirmed
- DDIT4 regulation in clonal mNeon-tagged reporter cell line by FACS ([5]; stimulated for six hours): confirmed

SMILES: NS(=O)(=O)c1ccc(S(=O)(=O)Nc2cccc3c(Cl)c[nH]c23)cc1 [Indisulam]
- RBM39 down-regulation by TMT whole proteome mass spectrometry (HEK293T cells [1]; strong but not statistically significant hit): 2 fold
- effect size of the next potentially depleted protein by SBP ([2]; drug vs DMSO control, comparison with RBM39): −0.37 bins
- RBM39 effect size (change of mean protein expression bin) by SBP ([2]; drug vs DMSO control, six sorted expression bins, two replicate runs): −2.1 bins
- RBM39 protein level change by SBP/PATTERNS ([2]; drug-treated vs control tagged library): highly specific depletion
- significantly depleted proteins by SBP/PATTERNS (specificity) ([2]; two replicates, FDR 5%): only significantly depleted protein
- RBM39 RNA level (HEK293T cells [3]; [6]): no significant change
- RBM39 depletion validated by western blot (HEK293T cells [4]): confirmed
- RBM39 depletion validated by FACS of a clonal reporter cell line ([5]; stimulated for six hours): confirmed

SMILES: CCc1c(O)cc(O)c(C(=O)c2ccc(OCCN3CCOCC3)c(OC)c2)c1CC(=O)N(CCOC)CCOC.Cl [KW-2478]
- MSH6-mNeonGreen expression after application of single compounds (MSH6): downregulation

SMILES: CC(C)C[C@@H](C=O)NC(=O)[C@H](CC(C)C)NC(=O)[C@H](CC(C)C)NC(=O)OCc1ccccc1 [MG-132] (Cbz-Leu-Leu-Leu-aldehyde)
- DDIT4 regulation in clonal mNeon-tagged reporter cell line by FACS ([5]; stimulated for six hours): regulated

SMILES: Cc1ncsc1-c1ccc(CNC(=O)[C@@H]2C[C@@H](O)CN2C(=O)[C@@H](NC(=O)COCCOCCOCCNC(=O)C[C@@H]2N=C(c3ccc(Cl)cc3)c3c(sc(C)c3C)-n3c(C)nnc32)C(C)(C)C)cc1 [MZ-1]
- BRD4 in mass spectrometry analysis (HEK293T cells [1]; BRD4 not represented in the SBP library): not statistically significant hit
- BRD2 down-regulation by mass spectrometry (HEK293T cells [1]; strong albeit not statistically significant hit): 2.3 fold
- BRD protein family members degraded, by PATTERNS ([2]; HEK293T library): degradation of two BRD protein family members, BRD2 and BRD3
- number of proteins significantly affected, by PATTERNS ([2]; HEK293T library): 20 proteins
- BRD2 protein level change by SBP ([2]; drug vs DMSO control): significant decrease
- BRD2 identification by RNA-Seq (HEK293T cells [3]; [6]): could not be identified
- BRD2 decrease validated by western blot (HEK293T cells [4]): confirmed
- BRD2 decrease validated by FACS of clonal reporter cell line ([5]; stimulated for six hours): confirmed

SMILES: CC1(C)CC(=O)c2c(C(F)(F)F)nn(-c3ccc(C(N)=O)c(N[C@H]4CC[C@H](O)CC4)c3)c2C1 [SNX2112, SNX-2112]
- kinetics of the reduction of MSH6 levels (MSH6; 125 nM, indicated time points): significant depletion in MSH6 levels in under two hours
- MSH6-mNeonGreen expression after application of single compounds (MSH6): downregulation
- kinetics of the reduction of PRKDC levels (PRKDC): also observed

SMILES: CC1(C)CC(=O)c2c(C(F)(F)F)nn(-c3ccc(C(N)=O)c(N[C@H]4CC[C@H](OC(=O)CN)CC4)c3)c2C1 [SNX-5422]
- MSH6-mNeonGreen expression after application of single compounds (MSH6): downregulation
